Reference: article PMC9492542, “Brain-restricted mTOR inhibition with binary pharmacology” (Nature, 2022)
Values joined by “and” are separate entries in the source; they are usually repeats but may differ in a detail not shown here. Identical values can stand only once. Like-named read-outs stand apart in the source and are kept apart here.

Experiments:
[1] = molecular target: 476 purified kinases (Homo sapiens, UniProt O00141); conditions: ZLYTE
[2] = molecular target: 476 purified kinases (Homo sapiens, UniProt O00238)
[3] = molecular target: 476 purified kinases (Homo sapiens, UniProt O75716)
[4] = molecular target: 476 purified kinases (Homo sapiens, UniProt O76039); conditions: ZLYTE
[5] = molecular target: 476 purified kinases (Homo sapiens, UniProt P14616); conditions: ZLYTE
Chain of 476 purified kinases (Homo sapiens, UniProt P14616) (P14616 27-1297): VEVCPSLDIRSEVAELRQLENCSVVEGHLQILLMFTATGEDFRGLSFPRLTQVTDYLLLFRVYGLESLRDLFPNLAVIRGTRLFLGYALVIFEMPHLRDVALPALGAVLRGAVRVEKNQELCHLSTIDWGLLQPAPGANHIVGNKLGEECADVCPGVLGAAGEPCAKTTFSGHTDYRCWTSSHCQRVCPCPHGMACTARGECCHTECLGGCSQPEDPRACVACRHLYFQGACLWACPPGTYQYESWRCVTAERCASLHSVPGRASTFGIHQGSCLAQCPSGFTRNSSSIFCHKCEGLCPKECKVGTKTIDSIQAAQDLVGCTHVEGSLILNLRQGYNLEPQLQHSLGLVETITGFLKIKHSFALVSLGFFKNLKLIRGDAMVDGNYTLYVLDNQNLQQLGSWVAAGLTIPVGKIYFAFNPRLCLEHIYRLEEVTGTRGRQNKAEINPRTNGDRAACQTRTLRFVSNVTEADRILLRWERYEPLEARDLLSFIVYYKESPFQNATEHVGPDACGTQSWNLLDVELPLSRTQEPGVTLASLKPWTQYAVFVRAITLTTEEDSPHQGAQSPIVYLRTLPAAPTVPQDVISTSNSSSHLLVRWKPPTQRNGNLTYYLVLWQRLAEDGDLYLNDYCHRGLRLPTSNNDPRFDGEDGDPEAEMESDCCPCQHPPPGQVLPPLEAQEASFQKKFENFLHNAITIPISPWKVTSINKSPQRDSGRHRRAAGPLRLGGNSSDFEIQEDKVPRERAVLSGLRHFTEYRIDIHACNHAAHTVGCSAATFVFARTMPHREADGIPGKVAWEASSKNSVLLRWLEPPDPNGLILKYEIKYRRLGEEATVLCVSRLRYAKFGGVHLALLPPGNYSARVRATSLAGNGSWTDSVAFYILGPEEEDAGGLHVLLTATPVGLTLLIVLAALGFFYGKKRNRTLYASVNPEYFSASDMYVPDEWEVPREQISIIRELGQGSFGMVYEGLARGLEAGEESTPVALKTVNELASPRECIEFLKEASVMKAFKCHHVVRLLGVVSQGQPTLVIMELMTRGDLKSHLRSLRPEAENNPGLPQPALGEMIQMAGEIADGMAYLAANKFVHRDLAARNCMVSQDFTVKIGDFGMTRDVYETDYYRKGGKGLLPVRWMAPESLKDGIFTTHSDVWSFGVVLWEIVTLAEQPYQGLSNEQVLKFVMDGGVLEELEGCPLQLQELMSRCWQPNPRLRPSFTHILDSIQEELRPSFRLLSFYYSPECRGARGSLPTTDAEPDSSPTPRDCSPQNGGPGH

[6] = molecular target: 476 purified kinases (Homo sapiens, UniProt P19525)
[7] = molecular target: 476 purified kinases (Homo sapiens, UniProt P22612)
[8] = molecular target: 476 purified kinases (Homo sapiens, UniProt P22694)
[9] = molecular target: 476 purified kinases (Homo sapiens, UniProt P23443); conditions: ZLYTE
Chain of 476 purified kinases (Homo sapiens, UniProt P23443) (P23443 whole entry): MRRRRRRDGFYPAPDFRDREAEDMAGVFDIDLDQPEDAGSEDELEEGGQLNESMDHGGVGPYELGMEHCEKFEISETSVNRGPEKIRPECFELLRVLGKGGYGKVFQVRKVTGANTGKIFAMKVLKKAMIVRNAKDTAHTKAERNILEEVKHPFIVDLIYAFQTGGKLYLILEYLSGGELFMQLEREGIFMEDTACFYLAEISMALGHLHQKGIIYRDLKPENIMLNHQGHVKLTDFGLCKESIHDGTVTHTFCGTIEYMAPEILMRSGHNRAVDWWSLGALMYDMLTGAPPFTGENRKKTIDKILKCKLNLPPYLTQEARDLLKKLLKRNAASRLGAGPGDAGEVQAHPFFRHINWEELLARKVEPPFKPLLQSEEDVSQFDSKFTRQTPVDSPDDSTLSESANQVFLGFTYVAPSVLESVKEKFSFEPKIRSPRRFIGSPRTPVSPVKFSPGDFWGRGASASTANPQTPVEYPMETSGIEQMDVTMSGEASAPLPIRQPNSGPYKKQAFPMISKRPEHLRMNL

[10] = molecular target: T1, 476 purified kinases (Homo sapiens, UniProt P52564); conditions: for MAP2K6 (MKK6) (kinase profiling): ZLYTE
T1 sequence (P52564 1-334): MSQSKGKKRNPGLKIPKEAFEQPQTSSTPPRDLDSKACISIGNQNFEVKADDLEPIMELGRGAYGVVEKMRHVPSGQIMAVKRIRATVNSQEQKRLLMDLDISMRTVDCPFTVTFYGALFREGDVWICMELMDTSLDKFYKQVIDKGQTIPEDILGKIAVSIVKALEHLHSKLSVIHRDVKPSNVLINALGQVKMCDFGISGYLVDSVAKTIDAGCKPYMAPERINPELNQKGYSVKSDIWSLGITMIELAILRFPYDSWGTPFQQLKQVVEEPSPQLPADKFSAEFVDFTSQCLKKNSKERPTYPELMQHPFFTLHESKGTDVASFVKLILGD

[11] = molecular target: 476 purified kinases (Homo sapiens, UniProt P52564, S207E/T211E)
[12] = molecular target: 476 purified kinases (Homo sapiens, UniProt Q07002); conditions: ZLYTE
Chain of 476 purified kinases (Homo sapiens, UniProt Q07002) (Q07002 whole entry): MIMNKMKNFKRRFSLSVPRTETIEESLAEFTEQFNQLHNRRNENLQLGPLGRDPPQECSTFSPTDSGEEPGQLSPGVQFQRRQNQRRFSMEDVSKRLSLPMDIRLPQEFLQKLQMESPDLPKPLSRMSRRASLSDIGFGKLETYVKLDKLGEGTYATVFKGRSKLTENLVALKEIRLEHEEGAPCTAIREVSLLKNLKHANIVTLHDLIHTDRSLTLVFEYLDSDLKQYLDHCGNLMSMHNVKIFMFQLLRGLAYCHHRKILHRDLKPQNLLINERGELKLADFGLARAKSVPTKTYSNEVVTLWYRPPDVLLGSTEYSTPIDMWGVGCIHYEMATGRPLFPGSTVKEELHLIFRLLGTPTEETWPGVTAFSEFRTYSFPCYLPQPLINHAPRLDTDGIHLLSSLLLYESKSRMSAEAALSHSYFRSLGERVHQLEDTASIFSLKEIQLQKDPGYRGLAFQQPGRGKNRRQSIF

[13] = molecular target: 476 purified kinases (Homo sapiens, UniProt Q13554); conditions: ZLYTE
Chain of 476 purified kinases (Homo sapiens, UniProt Q13554) (Q13554 whole entry): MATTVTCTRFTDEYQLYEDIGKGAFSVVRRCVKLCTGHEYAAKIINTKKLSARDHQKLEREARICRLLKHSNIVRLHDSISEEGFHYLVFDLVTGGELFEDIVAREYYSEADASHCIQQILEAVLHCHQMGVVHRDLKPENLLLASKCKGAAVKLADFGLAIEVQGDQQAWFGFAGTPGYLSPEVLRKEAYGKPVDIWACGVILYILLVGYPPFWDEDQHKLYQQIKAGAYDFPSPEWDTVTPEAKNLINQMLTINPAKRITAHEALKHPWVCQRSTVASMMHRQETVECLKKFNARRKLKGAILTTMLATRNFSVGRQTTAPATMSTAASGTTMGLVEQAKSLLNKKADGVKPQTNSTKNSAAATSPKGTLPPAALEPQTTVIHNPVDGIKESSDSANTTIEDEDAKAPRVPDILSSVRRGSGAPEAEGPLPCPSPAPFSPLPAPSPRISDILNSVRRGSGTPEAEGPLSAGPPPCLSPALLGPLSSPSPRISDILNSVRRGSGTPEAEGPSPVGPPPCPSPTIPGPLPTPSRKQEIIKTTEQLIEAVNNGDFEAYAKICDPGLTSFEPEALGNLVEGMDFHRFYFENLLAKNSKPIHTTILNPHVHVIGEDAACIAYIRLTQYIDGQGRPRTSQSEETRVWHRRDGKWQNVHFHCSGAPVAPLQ

[14] = molecular target: 476 purified kinases (Homo sapiens, UniProt Q13705)
Chain of 476 purified kinases (Homo sapiens, UniProt Q13705) (Q13705 19-512): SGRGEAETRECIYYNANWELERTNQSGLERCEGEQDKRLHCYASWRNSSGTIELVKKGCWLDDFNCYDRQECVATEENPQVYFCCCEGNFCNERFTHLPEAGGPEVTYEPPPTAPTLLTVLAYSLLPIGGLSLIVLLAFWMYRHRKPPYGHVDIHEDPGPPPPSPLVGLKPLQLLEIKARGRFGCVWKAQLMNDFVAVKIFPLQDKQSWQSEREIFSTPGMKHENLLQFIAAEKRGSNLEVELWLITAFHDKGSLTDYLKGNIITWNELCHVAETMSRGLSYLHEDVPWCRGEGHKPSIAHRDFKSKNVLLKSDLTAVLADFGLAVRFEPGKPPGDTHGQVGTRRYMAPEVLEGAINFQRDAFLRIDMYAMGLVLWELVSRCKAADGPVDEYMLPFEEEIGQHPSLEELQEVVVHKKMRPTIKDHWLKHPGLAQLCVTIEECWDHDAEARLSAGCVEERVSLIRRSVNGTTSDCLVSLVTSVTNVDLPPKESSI

[15] = molecular target: 476 purified kinases (Homo sapiens, UniProt Q15139); conditions: ZLYTE
[16] = molecular target: 476 purified kinases (Homo sapiens, UniProt Q15208)
[17] = molecular target: 476 purified kinases (Homo sapiens, UniProt Q86Z02); conditions: ZLYTE; 10 nM
[18] = molecular target: 476 purified kinases (Homo sapiens, UniProt Q8IYT8)
[19] = molecular target: 476 purified kinases (Homo sapiens, UniProt Q8NI60)
Chain of 476 purified kinases (Homo sapiens, UniProt Q8NI60) (Q8NI60 163-647): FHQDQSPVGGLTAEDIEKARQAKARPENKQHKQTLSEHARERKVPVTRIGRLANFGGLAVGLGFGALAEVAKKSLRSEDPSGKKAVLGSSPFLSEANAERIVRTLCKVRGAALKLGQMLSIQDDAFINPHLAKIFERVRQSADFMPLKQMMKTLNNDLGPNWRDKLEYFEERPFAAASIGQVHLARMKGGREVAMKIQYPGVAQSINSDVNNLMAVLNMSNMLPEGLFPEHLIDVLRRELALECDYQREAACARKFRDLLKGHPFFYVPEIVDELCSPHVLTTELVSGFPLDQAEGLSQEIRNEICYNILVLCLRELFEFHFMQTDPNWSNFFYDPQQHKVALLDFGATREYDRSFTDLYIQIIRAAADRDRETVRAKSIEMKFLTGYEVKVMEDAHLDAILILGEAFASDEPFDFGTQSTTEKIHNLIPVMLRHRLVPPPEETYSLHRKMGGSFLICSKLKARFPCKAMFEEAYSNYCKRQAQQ

[20] = molecular target: 476 purified kinases (Homo sapiens, UniProt Q8WTQ7); conditions: ZLYTE
[21] = molecular target: 476 purified kinases (Homo sapiens, UniProt Q96S53)
Chain of 476 purified kinases (Homo sapiens, UniProt Q96S53) (Q96S53 whole entry): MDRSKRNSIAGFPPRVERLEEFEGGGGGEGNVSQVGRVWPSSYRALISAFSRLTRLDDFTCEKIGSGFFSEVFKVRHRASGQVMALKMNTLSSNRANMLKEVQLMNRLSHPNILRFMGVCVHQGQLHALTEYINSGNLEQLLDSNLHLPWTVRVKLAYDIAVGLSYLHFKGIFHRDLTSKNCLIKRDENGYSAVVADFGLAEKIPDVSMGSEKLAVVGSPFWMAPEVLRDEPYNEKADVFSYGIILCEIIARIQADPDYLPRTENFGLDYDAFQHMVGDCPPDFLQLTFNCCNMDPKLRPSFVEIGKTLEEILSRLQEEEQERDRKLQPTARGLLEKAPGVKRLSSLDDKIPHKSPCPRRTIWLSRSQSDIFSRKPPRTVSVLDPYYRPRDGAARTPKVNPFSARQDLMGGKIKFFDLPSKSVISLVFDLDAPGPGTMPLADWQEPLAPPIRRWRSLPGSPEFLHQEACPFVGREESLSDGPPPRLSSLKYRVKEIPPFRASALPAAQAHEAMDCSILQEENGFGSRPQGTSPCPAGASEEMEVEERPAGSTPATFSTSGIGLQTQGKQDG

[22] = molecular target: 476 purified kinases (Homo sapiens, UniProt Q99558)
[23] = molecular target: 476 purified kinases (Homo sapiens, UniProt Q99759)
[24] = molecular target: 476 purified kinases (Homo sapiens, UniProt Q9H4B4); conditions: ZLYTE
[25] = test system: human PBMCs; assay: Proliferation of anti-CD3/anti-CD28 stimulated PBMCs (120 h); format: cell-based; set-up: PBMC cell proliferation: unit not given here
[26] = test system: GBM43; assay: Orthotopic intracranial GBM43-luciferase patient-derived glioblastoma xenograft; conditions: GBM43-Luc

Chain of 476 purified kinases (Homo sapiens, UniProt O00141) (O00141 whole entry): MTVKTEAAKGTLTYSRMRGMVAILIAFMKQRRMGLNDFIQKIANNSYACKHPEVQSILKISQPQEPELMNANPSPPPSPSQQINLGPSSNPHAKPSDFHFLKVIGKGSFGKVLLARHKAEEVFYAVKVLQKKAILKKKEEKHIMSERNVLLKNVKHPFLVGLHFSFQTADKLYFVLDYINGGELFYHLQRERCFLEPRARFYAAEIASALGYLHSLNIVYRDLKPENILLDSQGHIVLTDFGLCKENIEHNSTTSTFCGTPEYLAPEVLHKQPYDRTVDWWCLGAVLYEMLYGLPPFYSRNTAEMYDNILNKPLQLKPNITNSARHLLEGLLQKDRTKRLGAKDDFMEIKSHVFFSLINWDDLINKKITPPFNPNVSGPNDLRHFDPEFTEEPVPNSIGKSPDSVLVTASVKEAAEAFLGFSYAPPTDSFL

Cc1nc(Nc2ncc(C(=O)Nc3c(C)cccc3Cl)s2)cc(N2CCN(CCO)CC2)n1 [Dasatinib]
SGK (SGK1) (kinase profiling) ([1]; 10 nM): 2 | SGK (SGK1) (kinase profiling) ([1]; 10 nM + 10 µM FKBP12): 2 | BMPR1B (ALK6) (LanthaScreen Binding) ([2]; 10 nM compound): 7 | BMPR1B (ALK6) (LanthaScreen Binding) ([2]; 10 nM compound + 10 µM FKBP12): -9 | STK16 (PKL12) (LanthaScreen Binding) ([3]; 10 nM compound): -1 | STK16 (PKL12) (LanthaScreen Binding) ([3]; 10 nM compound + 10 µM FKBP12): -1 | CDKL5 (kinase profiling) ([4]; 10 nM): 5 | CDKL5 (kinase profiling) ([4]; 10 nM + 10 µM FKBP12): 7 | INSRR (IRR) (kinase profiling) ([5]; 10 nM): 4 | INSRR (IRR) (kinase profiling) ([5]; 10 nM + 10 µM FKBP12): 21 | EIF2AK2 (PKR) (LanthaScreen Binding) ([6]; 10 nM compound): -5 | EIF2AK2 (PKR) (LanthaScreen Binding) ([6]; 10 nM compound + 10 µM FKBP12): -10 | PRKACG (PRKAC gamma) (LanthaScreen Binding) ([7]; 10 nM compound): 0 | PRKACG (PRKAC gamma) (LanthaScreen Binding) ([7]; 10 nM compound + 10 µM FKBP12): 6 | PRKACB (PRKAC beta) (LanthaScreen Binding) ([8]; 10 nM compound): -9 | PRKACB (PRKAC beta) (LanthaScreen Binding) ([8]; 10 nM compound + 10 µM FKBP12): -3 | RPS6KB1 (p70S6K) (kinase profiling) ([9]; 10 nM): 5 | RPS6KB1 (p70S6K) (kinase profiling) ([9]; 10 nM + 10 µM FKBP12): 0 | MAP2K6 (MKK6) (LanthaScreen Binding) ([10]; 10 nM compound): -3 | MAP2K6 (MKK6) (LanthaScreen Binding) ([10]; 10 nM compound + 10 µM FKBP12): 8 | MAP2K6 (MKK6) (kinase profiling) ([10]; 10 nM): 9 | MAP2K6 (MKK6) (kinase profiling) ([10]; 10 nM + 10 µM FKBP12): 8 | MAP2K6 (MKK6) S207E T211E (LanthaScreen Binding) ([11]; 10 nM compound): -2 | MAP2K6 (MKK6) S207E T211E (LanthaScreen Binding) ([11]; 10 nM compound + 10 µM FKBP12): 2 | CDK18/cyclin Y (kinase profiling) ([12]; 10 nM): 6 | CDK18/cyclin Y (kinase profiling) ([12]; 10 nM + 10 µM FKBP12): 9 | CAMK2B (CaMKII beta) (kinase profiling) ([13]; 10 nM): 7 | CAMK2B (CaMKII beta) (kinase profiling) ([13]; 10 nM + 10 µM FKBP12): 7 | ACVR2B (LanthaScreen Binding) ([14]; 10 nM compound): 5 | ACVR2B (LanthaScreen Binding) ([14]; 10 nM compound + 10 µM FKBP12): 12 | PRKD1 (PKC mu) (kinase profiling) ([15]; 10 nM): 10 | PRKD1 (PKC mu) (kinase profiling) ([15]; 10 nM + 10 µM FKBP12): 12 | STK38 (NDR) (LanthaScreen Binding) ([16]; 10 nM compound): 0 | STK38 (NDR) (LanthaScreen Binding) ([16]; 10 nM compound + 10 µM FKBP12): 2 | HIPK1 (Myak) (kinase profiling) [17]: 1 | ULK2 (LanthaScreen Binding) ([18]; 10 nM compound): -3 | ULK2 (LanthaScreen Binding) ([18]; 10 nM compound + 10 µM FKBP12): -6 | ADCK3 (LanthaScreen Binding) ([19]; 10 nM compound): -1 | ADCK3 (LanthaScreen Binding) ([19]; 10 nM compound + 10 µM FKBP12): 16 | GRK7 (kinase profiling) ([20]; 10 nM): 3 | GRK7 (kinase profiling) ([20]; 10 nM + 10 µM FKBP12): -1 | TESK2 (LanthaScreen Binding) ([21]; 10 nM compound): 30 | TESK2 (LanthaScreen Binding) ([21]; 10 nM compound + 10 µM FKBP12): 35 | MAP3K14 (NIK) (LanthaScreen Binding) ([22]; 10 nM compound): -2 | MAP3K14 (NIK) (LanthaScreen Binding) ([22]; 10 nM compound + 10 µM FKBP12): 2 | MAP3K3 (MEKK3) (LanthaScreen Binding) ([23]; 10 nM compound): 1 | MAP3K3 (MEKK3) (LanthaScreen Binding) ([23]; 10 nM compound + 10 µM FKBP12): 3 | PLK3 (kinase profiling) ([24]; 10 nM): -4 | PLK3 (kinase profiling) ([24]; 10 nM + 10 µM FKBP12): -21

CO[C@H]1C[C@@H]2CC[C@@H](C)[C@@](O)(O2)C(=O)C(=O)N2CCCC[C@H]2C(=O)O[C@H]([C@H](C)C[C@@H]2CC[C@@H](OCCOCc3cn(CCOCCOCCOCCOCCOCCOCCOCCOCCC(=O)NCCCCn4nc(-c5ccc6oc(N)nc6c5)c5c(N)ncnc54)nn3)[C@H](OC)C2)CC(=O)[C@H](C)/C=C(\C)[C@@H](O)[C@@H](OC)C(=O)[C@H](C)C[C@H](C)/C=C/C=C/C=C/1C [RapaLink-1]
PBMC cell proliferation ([25]; 0.005081 nM RapaLink-1, +10 μM RapaBlock): 104.4 and 111.7 and 94.4 | PBMC cell proliferation ([25]; 0.005081 nM RapaLink-1, No RapaBlock): 115.8 and 102.5 and 98.3 | PBMC cell proliferation ([25]; 0.015242 nM RapaLink-1, +10 μM RapaBlock): 110 and 113.9 and 99.3 | PBMC cell proliferation ([25]; 0.015242 nM RapaLink-1, No RapaBlock): 121.8 and 109.1 and 110.9 | PBMC cell proliferation ([25]; 0.045725 nM RapaLink-1, +10 μM RapaBlock): 112.2 and 110.5 and 104.3 | PBMC cell proliferation ([25]; 0.045725 nM RapaLink-1, No RapaBlock): 121.5 and 108 and 104.7 | PBMC cell proliferation ([25]; 0.137174 nM RapaLink-1, +10 μM RapaBlock): 110.3 and 116.4 and 104.2 | PBMC cell proliferation ([25]; 0.137174 nM RapaLink-1, No RapaBlock): 113.1 and 112.8 and 102.9 | PBMC cell proliferation ([25]; 0.411523 nM RapaLink-1, +10 μM RapaBlock): 114.7 and 112.8 and 107.7 | PBMC cell proliferation ([25]; 0.411523 nM RapaLink-1, No RapaBlock): 98.2 and 98.7 and 94.9 | PBMC cell proliferation ([25]; 1.23457 nM RapaLink-1, +10 μM RapaBlock): 109.6 and 111.8 and 107 | PBMC cell proliferation ([25]; 1.23457 nM RapaLink-1, No RapaBlock): 44.3 and 45.5 and 45.3 | PBMC cell proliferation ([25]; 3.7037 nM RapaLink-1, +10 μM RapaBlock): 105.8 and 104.9 and 94.5 | PBMC cell proliferation ([25]; 3.7037 nM RapaLink-1, No RapaBlock): 29.2 and 28.4 and 25.5 | PBMC cell proliferation ([25]; 11.1111 nM RapaLink-1, +10 μM RapaBlock): 84.3 and 94.6 and 81 | PBMC cell proliferation ([25]; 11.1111 nM RapaLink-1, No RapaBlock): 13.5 and 22.4 and 19.1 | PBMC cell proliferation ([25]; 33.3333 nM RapaLink-1, +10 μM RapaBlock): 64.4 and 70.2 and 62.9 | PBMC cell proliferation ([25]; 33.3333 nM RapaLink-1, No RapaBlock): 20.6 and 20 and 17.2 | PBMC cell proliferation ([25]; 100 nM RapaLink-1, +10 μM RapaBlock): 39.8 and 43.7 and 38.7 | PBMC cell proliferation ([25]; 100 nM RapaLink-1, No RapaBlock): 17.8 and 16.4 and 15.6 | inhibition of PBMC proliferation ([25]; 5 days): potently inhibited proliferation of PBMCs at nanomolar concentrations | Mouse weight ([26]; day 0, individual mice): 23.5 g and 21.9 g and 22.3 g and 22.1 g and 19.3 g and 21.6 g | Tumor size (measured by bioluminescence) ([26]; day 0, individual mice): 9520000 and 3020000 and 1670000 and 519000 and 248000 and 80200 | Mouse weight ([26]; day 4, individual mice): 22.9 g and 20.8 g and 22.2 g (2×) and 23.1 g and 20.1 g | Tumor size (measured by bioluminescence) ([26]; day 4, individual mice): 1310000 and 940000 and 1040000 and 482000 and 175000 and 141000 | Mouse weight ([26]; day 7, individual mice): 22.7 g and 19.8 g and 21.2 g and 20.8 g and 19.6 g and 22.9 g | Tumor size (measured by bioluminescence) ([26]; day 7, individual mice): 121000000 and 131000000 and 102000000 and 25200000 and 4850000 | Mouse weight ([26]; day 10, individual mice): 20.5 g and 20.2 g and 21.6 g and 20.6 g and 19.4 g and 22 g | Tumor size (measured by bioluminescence) ([26]; day 10, individual mice): 686000000 and 671000000 and 515000000 and 1100000000 and 3050000000 and 2140000 | Mouse survival ([26]; individual mice, listed as RL-1): 17 days and 18 days and 19 days
